Patent publication US20240350422A1, “FORMULATION PROCESS FOR CPMV NANOPARTICLES” (The Regents of the University of California, priority 2021, published 2024)
Where no end group is shown, it is not given here.

B1: TMV-Cy5.5 (+F127): Cy5.5 conjugated to TMV lysines via NHS ester, COAT method; Table 4 row Cy5.5 NHS (+F127) (conjugate, UniProt P69687 2-159, looked up)
Capsid protein: SYSITTPSQFVFLSSAWADPIELINLCTNALGNQFQTQQARTVVQRQFSEVWKPSPQVTVRFPDSDFKVYRYNAVLDPLVTALLGAFDTRNRIIEVENQANPTTAETLDATRRVDDATVAIRSAINNLIVELIRGTGSYNRSSFESSSGLVWTSGPAT
modifications: Cy5.5 dye, F127 coated virion
B2: TMV-Cy5.5 (−F127): Cy5.5 conjugated to uncoated TMV, control; Table 4 row Cy5.5 NHS (−F127) (conjugate, UniProt P69687 2-159, looked up)
Capsid protein: B1 Capsid protein
modifications: Cy5.5 dye on whole virion

Key:
[1] = Observed water / reaction buffer solubility of ligands; conditions: for Observed water solubility: Table 1; for solubility in the reaction buffer: 0.01 M potassium phosphate reaction buffer (pH 7.4)
[2] = Dynamic light scattering (DLS) of plant VNPs and conjugates; type: physicochemical; conditions: purified conjugate particles; (+F127) = COAT/FORMCOAT, (−F127) = uncoated control
Procedure: DLS. The hydrodynamic diameter of native and conjugated plant VNPs was determined by diluting the samples to 1 mg/mL in 0.01 M potassium phosphate buffer (pH 7.4) followed by measurement using a Zetasizer Nano ZSP/Zen5600 instrument (Malvern Panalytical, Malvern, UK). The particle length was calculated as the weighted mean of the intensity distribution.

[3] = Aggregation / dispersion of conjugate particles (photograph, DLS, TEM); type: physicochemical; conditions: pH 7.4

Molecule | Observed water solubility [1] | solubility in the reaction buffer [1] | PDI [2] | Z-average [2] [nm] | aggregation / dispersion of the particles [3]
CSGGGDWFKAFYDKVAEKFKEAF [ApoAI-4FN] | Good | – | – | – | –
CSGGGWGWSLSHGYQVK [ScG3] | Good | – | – | – | –
YQDMVLWKDVFRKNNQLAPVGPSLC [CH401-Rat] | Poor | insoluble | – | – | –
CGGGVFLQKYPHTHLVHQA [Myostatin 1] | Good | – | – | – | –
CC[C@H](C)[C@H](NC(=O)[C@H](Cc1ccccc1)NC(=O)[C@H](CO)NC(=O)[C@H](CCCNC(=N)N)NC(=O)[C@H](CCCCN)NC(=O)[C@H](CO)NC(=O)[C@@H]1CCCN1C(=O)[C@H](CCCCN)NC(=O)[C@H](CO)NC(=O)[C@@H]1CCCN1C(=O)CNC(=O)CNC(=O)CNC(=O)[C@@H](N)CS)C(=O)N[C@@H](CCC(=O)O)C(=O)N[C@@H](CC(=O)O)C(=O)N[C@@H](CC(C)C)C(=O)N[C@@H](CC(C)C)C(=O)N[C@@H](Cc1ccccc1)C(=O)N[C@@H](CC(N)=O)C(=O)N[C@@H](CCCCN)C(=O)N[C@H](C(=O)O)C(C)C [COVID-826] | Good | – | – | – | –
CSCC[C@H](NC(=O)[C@H](Cc1c[nH]c2ccccc12)NC(=O)[C@H](CO)NC(=O)[C@H](CCCCN)NC(=O)[C@H](CC(N)=O)NC(=O)[C@H](CC(N)=O)NC(=O)[C@H](CCCCN)NC(=O)[C@H](Cc1c[nH]cn1)NC(=O)[C@H](Cc1ccc(O)cc1)NC(=O)[C@H](Cc1ccc(O)cc1)NC(=O)[C@@H](NC(=O)CNC(=O)[C@H](CC(C)C)NC(=O)[C@H](Cc1ccccc1)NC(=O)[C@@H]1CCCN1C(=O)CNC(=O)CNC(=O)CNC(=O)[C@@H](N)CS)C(C)C)C(=O)O [COVID-153] | Poor | insoluble | – | – | –
CC(C)C[C@H](NC(=O)[C@H](Cc1ccc(O)cc1)NC(=O)[C@H](CC(N)=O)NC(=O)[C@H](Cc1ccc(O)cc1)NC(=O)[C@H](CC(N)=O)NC(=O)CNC(=O)CNC(=O)[C@@H](NC(=O)[C@H](CCCCN)NC(=O)[C@H](CO)NC(=O)[C@H](CC(=O)O)NC(=O)[C@H](CC(C)C)NC(=O)[C@H](CC(N)=O)NC(=O)[C@H](CC(N)=O)NC(=O)CNC(=O)CNC(=O)CNC(=O)[C@@H](N)CS)C(C)C)C(=O)N[C@@H](Cc1ccc(O)cc1)C(=O)N[C@@H](CCCNC(=N)N)C(=O)O [COVID-454] | Poor | insoluble | – | – | –
CC[C@H](C)[C@H](NC(=O)[C@H](Cc1c[nH]c2ccccc12)NC(=O)CNC(=O)[C@H](CCCNC(=N)N)NC(=O)[C@@H](NC(=O)[C@@H](NC(=O)[C@H](CC(N)=O)NC(=O)[C@H](CO)NC(=O)[C@H](CCCCN)NC(=O)[C@H](CCC(=O)O)NC(=O)[C@@H](NC(=O)[C@H](CO)NC(=O)[C@H](C)NC(=O)[C@H](Cc1ccccc1)NC(=O)CNC(=O)CNC(=O)CNC(=O)[C@@H](N)CS)[C@@H](C)O)[C@@H](C)CC)[C@@H](C)CC)C(=O)N[C@@H](Cc1ccccc1)C(=O)O [COVID-106] | Poor | insoluble | – | – | –
B1 | – | – | 0.236 | 277.6 | dispersed and soluble, with no visible signs of aggregation
B2 | – | – | 0.749 | 436.8 | prone to aggregation
